Laboratory results as given in patent US6777418B2, “Retinoid compounds (I)” (Syntex (U.S.A.) LLC, priority 2000, dated 2004).
“And” between values parts separate entries of the source, which are not always exact repeats. Equal entries are not always repeated.

SMILES | melting point
CC1(C)CCC(C)(C)c2cc(-c3ccsc3)c(/C=C/c3ccc(C(=O)O)cc3)cc21 | 244.5 to 245.8 °C
CC1(C)CCC(C)(C)c2cc(-c3cccs3)c(/C=C/c3ccc(C(=O)O)cc3)cc21 | 242.5 to 243.6 °C
CC1(C)c2cc(/C=C/c3ccc(C(=O)O)cc3)c(Cn3cccn3)cc2C(C)(C)[C@@H](O)[C@H]1O (stereo in doubt) [Compound 148, 4-[(E)-2-(5,5,8,8-tetramethyl-3-pyrazol-1-ylmethyl-6,7-cis-dihydroxy-5,6,7,8-tetrahydro-naphthalen-2-yl)vinyl]-benzoic acid] | 238.3 to 241.5 °C and 238.5 to 241.5 °C
CC1(C)CCC(C)(C)c2cc(CSC3CCCC3)c(/C=C/c3ccc(C(=O)O)cc3)cc21 [Compound 4] | 209.4 to 211.3 °C
COCCOCc1cc2c(cc1/C=C/c1ccc(C(=O)O)cc1)C(C)(C)CCC2(C)C [Compound 5] | 55.9 to 58.2 °C
CC1(C)CCC(C)(C)c2cc(CSCC(O)CO)c(/C=C/c3ccc(C(=O)O)cc3)cc21 (centres unmarked) [Compound 9] | 174.8 to 175.9 °C
CCOCCCc1cc2c(cc1/C=C/c1ccc(C(=O)O)cc1)C(C)(C)CCC2(C)C [Compound 10, 4-{(E)-2-[3-(3-ethoxypropyl)-5,8,8-tetramethyl-5,6,7,8-tetrahydro-naphthalen-2-yl]vinyl}benzoic acid] | 169.4 to 173.3 °C
CC1(C)CCC(C)(C)c2cc(CCCO)c(/C=C/c3ccc(C(=O)O)cc3)cc21 [Compound 12, 4-{(E)-2-[3-(3-hydroxypropyl)-5,5,8,8-tetramethyl-5,6,7,8-tetrahydro-naphthalen-2-yl]vinyl}benzoic acid] | 212.8 to 213.2 °C
CC(C)SCc1cc2c(cc1/C=C/c1ccc(C(=O)O)cc1)C(C)(C)CCC2(C)C [Compound 13] | 208.6 to 210.8 °C
Cn1cnnc1SCc1cc2c(cc1/C=C/c1ccc(C(=O)O)cc1)C(C)(C)CCC2(C)C [Compound 22] | 251.6 to 252.6 °C
Cc1nnc(SCc2cc3c(cc2/C=C/c2ccc(C(=O)O)cc2)C(C)(C)CCC3(C)C)s1 [Compound 23] | 218.1 to 218.5 °C
Cc1nnc(SCCc2cc3c(cc2/C=C/c2ccc(C(=O)O)cc2)C(C)(C)CCC3(C)C)s1 [Compound 27, 4-((E)-2-{5,5,8,8-tetramethyl-3-[3-(5-methyl-[1,3,4]thiadizol-2ylsulfanyl)-ethyl]-5,6,7,8-tetrahydro-naphthalen-2-yl}vinyl)benzoic acid] | 244.7 to 245.2 °C
Cc1nnc(SCCCc2cc3c(cc2/C=C/c2ccc(C(=O)O)cc2)C(C)(C)CCC3(C)C)s1 [Compound 28, 4-((E)-2-{5,5,8,8-Tetramethyl-3-[3-(5-methyl-[1,3,4]thiadiazol-2-ylsulfanyl)-propyl]-5,6,7,8-tetrahydro-naphthalen-2-yl}vinyl)benzoic acid] | 144 to 145.3 °C
CC1(C)CCC(C)(C)c2cc(CCn3cccn3)c(/C=C/c3ccc(C(=O)O)cc3)cc21 [Compound 29, 4-{(E)-2-[5,5,8,8-tetramethyl-3-(2-pyrazol-1-ylethyl)-5,6,7,8-tetrahydro-naphthalen-2-yl]vinyl}benzoic acid] | 235.3 to 235.9 °C
CC1(C)CCC(C)(C)c2cc(CCCn3cccn3)c(/C=C/c3ccc(C(=O)O)cc3)cc21 [Compound 30, 4-{(E)-2-[5,5,8,8-tetramethyl-3-(3-pyrazol-1-ylpropyl)-5,6,7,8-tetrahydro-naphthalen-2-yl]vinyl}benzoic acid] | 181.5 to 182.5 °C
CC1(C)CCC(C)(C)c2cc(CCc3nccs3)c(/C=C/c3ccc(C(=O)O)cc3)cc21 [Compound 40, 4-{(E)-2-[5,5,8,8-tetramethyl-3-(2-thiazol-2-yl-ethyl)-5,6,7,8-tetrahydro-naphthalen-2-yl)vinyl]benzoic acid] | 215.8 to 217.5 °C
CC1(C)CCC(C)(C)c2cc(CCc3ncccn3)c(/C=C/c3ccc(C(=O)O)cc3)cc21 [Compound 41] | 228 to 228.9 °C
Cc1ccc(Cc2cc3c(cc2/C=C/c2ccc(C(=O)O)cc2)C(C)(C)CCC3(C)C)cc1 [Compound 42, 4-{(E)-2-[5,5,8,8-tetramethyl-3-(4-methylbenzyl)-5,6,7,8-tetrahydro-naphthalen-2-yl]vinyl}benzoic acid] | 216.3 to 217.3 °C
CC1(C)CCC(C)(C)c2cc(Cc3ccc(F)cc3F)c(/C=C/c3ccc(C(=O)O)cc3)cc21 [Compound 43, 4-{(E)-2-[5,5,8,8-tetramethyl-3-(2,4-difluorobenzyl)-5,6,7,8-tetrahydro-naphthalen-2-yl]vinyl}benzoic acid] | 204.3 to 205.7 °C
CC1(C)CCC(C)(C)c2cc(Cc3cccs3)c(/C=C/c3ccc(C(=O)O)cc3)cc21 [Compound 44, 4-[(E)-2-(5,5,8,8-tetramethyl-3-thiophen-2ylmethyl-5,6,7,8-tetrahydro-naphthalen-2-yl)vinyl]benzoic acid] | 229.1 to 229.6 °C
CC1(C)CCC(C)(C)c2cc(Cn3cccn3)c(/C=C/c3ccc(C(=O)O)s3)cc21 [Compound 45, 5-[(E)-2-(5,5,8,8-tetramethyl-3-pyrazol-1-ylmethyl-5,6,7,8-tetrahydro-naphthalen-2-yl)vinyl]-thiophene-2-carboxylic acid] | 168 to 174 °C
CC1(C)CCC(C)(C)c2cc(Cn3cccn3)c(/C=C/c3ccc(C(=O)O)c(F)c3)cc21 [Compound 47, 2-Fluoro-4-[(E)-2-[5,5,8,8-tetramethyl-3-pyrazol-1-ylmethyl-5,6,7,8-tetrahydronaphthalen-2-yl)vinyl]benzoic acid] | 177 to 179 °C
CC1(C)CC(O)C(C)(C)c2cc(Cn3cccn3)c(/C=C/c3ccc(C(=O)O)cc3)cc21 (centres unmarked) [Compound 55, 4-[(E)-2-(5,5,8,8-tetramethyl-3pyrazol-1-ylmethyl-6-hydroxy-5,6,7,8-tetrahydro-naphthalen-2-yl)vinyl]benzoic acid] | 241.6 to 242 °C
CC1(C)CC(=O)C(C)(C)c2cc(Cn3cccn3)c(/C=C/c3ccc(C(=O)O)cc3)cc21 [Compound 133, 4-[(E)-2-(5,5,8,8-tetramethyl-3-pyrazol-1-ylmethyl-6-oxo-5,6,7,8-tetrahydro-naphthalen-2-yl)vinyl]-benzoic acid] | 233 to 233.5 °C
CC1(C)CC(O)C(C)(C)c2cc(/C=C/c3ccc(C(=O)O)cc3)c(Cn3cccn3)cc21 (centres unmarked) [Compound 137, (E)-4-[2-(3-(pyrazole-1-ylmethyl)-7-hydroxy-5,5,8,8-tetramethyl-5,6,7,8-tetrahydronaphthalene-2-yl)vinyl]benzoic acid] | 247.6 to 248.4 °C
CC1(C)CC(=O)C(C)(C)c2cc(/C=C/c3ccc(C(=O)O)cc3)c(Cn3cccn3)cc21 [Compound 144, (E)-4-[2-(3-(pyrazole-1-ylmethyl)-7-oxo-5,5,8,8-tetramethyl-5,6,7,8-tetrahydronaphthalene-2-yl)vinyl]benzoic acid] | 264.8 to 265.9 °C
CC1(C)CCC(C)(C)c2cc(Sc3ncccn3)c(/C=C/c3ccc(C(=O)O)cc3)cc21 [Compound 155, 4-{(E)-2-[5,5,8,8-Tetramethyl-3-(mercaptopyrmidin-2-yl)-5,6,7,8-tetrahydro-naphthalen-2-yl)vinyl]benzoic acid] | 283 to 283.5 °C
CC1(C)CCC(C)(C)c2cc(Cn3cccn3)c(/C=C/c3ccc(C(N)=O)cc3)cc21 [Compound 165, 4-[(E)-2-(5,5,8,8-tetramethyl-3-pyrzol-1-ylmethyl-5,6,7,8-tetrahydro-naphthalen-2-yl)vinyl]benzamide] | 248 to 249 °C
CC1(C)CCC(C)(C)c2cc(Cn3cccn3)c(/C=C/c3ccc(C(=O)N4CCCCC4)cc3)cc21 [Compound 166, 4-[(E)-2-(5,5,8,8-tetramethyl-3-pyrzol-1-ylmethyl-5,6,7,8-tetrahydro-naphthalen-2-yl)vinyl]benzoic acid piperidine amide] | 171.6 to 172.5 °C
